Experimental data taken from patent publication US11083198B2, “4H-pyrrolopyridine compound or salt thereof, agricultural and horticultural insecticide comprising the compound or the salt, and method for using the insecticide” (Nihon Nohyaku Co., Ltd., priority 2016, dated 2021).

Columns and labels:
[1] = system: Laodelphax striatellus; assay: Insecticidal Test on Laodelphax striatellus; format: in vivo; details: 192 h, rice plant seedlings dipped for 30 seconds, 3rd-instar larvae, 8 days after the inoculation, read-out: insecticidal efficacy (corrected mortality rate)
Excerpt: Insecticidal Test on Laodelphax striatellus
The condensed heterocyclic compounds represented by the general formula (1) of the present invention or salts thereof were separately dispersed in water and diluted to 500 ppm. Rice plant seedlings (variety: Nihonbare) were dipped in the agrochemical dispersions for 30 seconds. After air-dried, each seedling was put into a separate glass test tube and inoculated with ten 3rd-instar larvae of Laodelphax striatellus, and then the glass test tubes were capped with cotton plugs. At 8 days after the inoculation, the numbers of surviving larvae and dead larvae were counted, the corrected mortality rate was calculated according to the formula shown below, and the insecticidal efficacy was evaluated according to the criteria shown below. Corrected mortality rate(%)=100×(Survival rate in a non-treatment plot−Survival rate in a treatment plot)/Survival rate in a non-treatment plot [Math. 2] Corrected Mortality Rate A: the corrected mortality rate is 100%. B: the corrected mortality rate is 90 to 99%. C: the corrected mortality rate is 80 to 89%. D: the corrected mortality rate is 50 to 79%.

[2] = system: Plutella xylostella; assay: Insecticidal Test on Plutella xylostella; format: in vivo; details: 144 h, Chinese cabbage seedlings with laid eggs dipped for about 30 seconds, 25° C., 6 days after the dip treatment, read-out: insecticidal efficacy (corrected mortality rate)
Excerpt: Insecticidal Test on Plutella xylostella
Adults of Plutella xylostella were released onto Chinese cabbage seedlings and allowed to lay eggs thereon. At 2 days after the release of the adults, the Chinese cabbage seedlings with laid eggs were dipped for about 30 seconds in agrochemical dispersions diluted to 500 ppm, each of which contained a different condensed heterocyclic compound represented by the general formula (1) of the present invention as an active ingredient. After air-dried, the seedlings were kept in a thermostatic chamber at 25° C. At 6 days after the dip treatment, the number of hatched larvae per plot was counted, the mortality rate was calculated according to the formula shown below, and the insecticidal efficacy was evaluated according to the criteria of Test Example 2. This test was conducted in triplicate using 10 adults of Plutella xylostella per plot. Corrected mortality rate(%)=100×(Number of hatched larvae in a non-treatment plot−Number of hatched larvae in a treatment plot)/Number of hatched larvae in a non-treatment plot [Math. 3]

SMILES	mortality at 500 ppm [1] [%]	mortality at 500 ppm [2] [%]
CCS(=O)(=O)c1c(-c2nc3cc(C(F)(F)F)cn(C)c-3c2F)nc2cc(C(F)(F)F)ccn12 [Compound 3-14, 2-(3-ethylsulfonyl-7-(trifluoromethyl)imidazo[1,2-a]pyridin-2-yl)-3-fluoro-4-methyl-6-(trifluoromethyl)-4H-pyrrolo[3,2-b]pyridine]	100	100
CCn1cc(C(F)(F)F)cc2nc(-c3ncc(-c4cccc(C(F)(F)F)c4)cc3S(=O)(=O)CC)c(F)c1-2 [Compound 1-16, 2-(5-(3-trifluoromethylphenyl)-3-ethylsulfonyl-pyridin-2-yl)-3-fluoro-4-ethyl-6-trifluoromethyl-4H-pyrrolo[3,2-b]pyridine]	100	100
CCS(=O)(=O)c1cc(-c2cccc(C(F)(F)F)c2)cnc1-c1nc2cc(C(F)(F)F)cn(C)c-2c1Cl [Compound 1-13, 2-(5-(3-trifluoromethylphenyl)-3-ethylsulfonyl-pyridin-2-yl)-3-chloro-4-methyl-6-trifluoromethyl-4H-pyrrolo[3,2-b]pyridine]	100	100
CCn1cc(C(F)(F)F)cc2nc(-c3nc4cc(Br)ccc4cc3S(=O)(=O)CC)c(Cl)c1-2 [Compound 2-52, 2-(7-bromo-3-ethylsulfonyl-quinolin-2-yl)-3-chloro-4-ethyl-6-trifluoromethyl-4H-pyrrolo[3,2-b]pyridine]	100	100
CCn1cc(C(F)(F)F)cc2nc(-c3nc4cc(Br)ccc4cc3S(=O)(=O)CC)c(F)c1-2 [Compound 2-76, 2-(7-bromo-3-ethylsulfonyl-quinolin-2-yl)-3-fluoro-4-ethyl-6-trifluoromethyl-4H-pyrrolo[3,2-b]pyridine]	100	100
